Assay [1] addresses T1, human N-type Ca channel (Homo sapiens, UniProt Q00975). Kind of assay: Calcium influx assay (FDSS), KCl depolarization, Fluo8 dye. The assay is classed as cell-based. On the set-up: host or cells: HEK 293. The procedure, abridged: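 HEK293 cells stably expressing the human N-type Ca channel were loaded with Fluo8 and washed in choline-based buffer (pH 7.2, 2 mM CaCl2, 2 mM KCl). Cells were preincubated with serially diluted compound for 15 min in the dark. Ca influx was then recorded by fluorescence after depolarization with 100 mM KCl.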

For assay [2], the target named is T1, human N-type Ca channel. Kind of assay: Electrophysiological response, QPatch (depolarization -80 mV to +20 mV). In general terms: In patch-clamp work, channel activity is measured electrically.
[3] abbreviates: HEK 293 cells expressing human N-type Ca channel, 100 mM KCl, read-out: N Type IC50 Data FDSS.
[4] abbreviates: N Type IC50 Data Qpatch Pulse=15, Pulse=15, concentration range 0.3-10 µM.
Setting [5] is: read-out: Qpatch Pulse=1 (percent inhibition).
Where [6] appears, read: read-out: Qpatch Pulse=15 (percent inhibition).
Setting [7] is: N Type IC50 Data Qpatch Pulse=1, Pulse=1, concentration range 0.01-1 µM.
The mark [8] stands for this setting: Pulse=15, concentration range 0.01-1 µM.
Setting [9] is: N Type IC50 Data Qpatch Pulse=1, Pulse=1, concentration range 0.3-10 µM.
The mark [10] stands for this setting: read-out: N Type IC50 Data Qpatch Pulse=15, Pulse=15, concentration range 0.01-1 µM.
Where [11] appears, read: concentration range 0.01-0.3 µM.
Setting [12] is: Pulse=15, concentration range 0.01-0.3 µM.
The mark [13] stands for this setting: N Type IC50 Data Qpatch Pulse=1, Pulse=1, concentration range 0.01-0.3 µM.

Each structure is given as a SMILES string. pIC50: −log10 of the molar value. Where two headings read alike, the source gives them in different places.

T1 sequence (Q00975 whole entry): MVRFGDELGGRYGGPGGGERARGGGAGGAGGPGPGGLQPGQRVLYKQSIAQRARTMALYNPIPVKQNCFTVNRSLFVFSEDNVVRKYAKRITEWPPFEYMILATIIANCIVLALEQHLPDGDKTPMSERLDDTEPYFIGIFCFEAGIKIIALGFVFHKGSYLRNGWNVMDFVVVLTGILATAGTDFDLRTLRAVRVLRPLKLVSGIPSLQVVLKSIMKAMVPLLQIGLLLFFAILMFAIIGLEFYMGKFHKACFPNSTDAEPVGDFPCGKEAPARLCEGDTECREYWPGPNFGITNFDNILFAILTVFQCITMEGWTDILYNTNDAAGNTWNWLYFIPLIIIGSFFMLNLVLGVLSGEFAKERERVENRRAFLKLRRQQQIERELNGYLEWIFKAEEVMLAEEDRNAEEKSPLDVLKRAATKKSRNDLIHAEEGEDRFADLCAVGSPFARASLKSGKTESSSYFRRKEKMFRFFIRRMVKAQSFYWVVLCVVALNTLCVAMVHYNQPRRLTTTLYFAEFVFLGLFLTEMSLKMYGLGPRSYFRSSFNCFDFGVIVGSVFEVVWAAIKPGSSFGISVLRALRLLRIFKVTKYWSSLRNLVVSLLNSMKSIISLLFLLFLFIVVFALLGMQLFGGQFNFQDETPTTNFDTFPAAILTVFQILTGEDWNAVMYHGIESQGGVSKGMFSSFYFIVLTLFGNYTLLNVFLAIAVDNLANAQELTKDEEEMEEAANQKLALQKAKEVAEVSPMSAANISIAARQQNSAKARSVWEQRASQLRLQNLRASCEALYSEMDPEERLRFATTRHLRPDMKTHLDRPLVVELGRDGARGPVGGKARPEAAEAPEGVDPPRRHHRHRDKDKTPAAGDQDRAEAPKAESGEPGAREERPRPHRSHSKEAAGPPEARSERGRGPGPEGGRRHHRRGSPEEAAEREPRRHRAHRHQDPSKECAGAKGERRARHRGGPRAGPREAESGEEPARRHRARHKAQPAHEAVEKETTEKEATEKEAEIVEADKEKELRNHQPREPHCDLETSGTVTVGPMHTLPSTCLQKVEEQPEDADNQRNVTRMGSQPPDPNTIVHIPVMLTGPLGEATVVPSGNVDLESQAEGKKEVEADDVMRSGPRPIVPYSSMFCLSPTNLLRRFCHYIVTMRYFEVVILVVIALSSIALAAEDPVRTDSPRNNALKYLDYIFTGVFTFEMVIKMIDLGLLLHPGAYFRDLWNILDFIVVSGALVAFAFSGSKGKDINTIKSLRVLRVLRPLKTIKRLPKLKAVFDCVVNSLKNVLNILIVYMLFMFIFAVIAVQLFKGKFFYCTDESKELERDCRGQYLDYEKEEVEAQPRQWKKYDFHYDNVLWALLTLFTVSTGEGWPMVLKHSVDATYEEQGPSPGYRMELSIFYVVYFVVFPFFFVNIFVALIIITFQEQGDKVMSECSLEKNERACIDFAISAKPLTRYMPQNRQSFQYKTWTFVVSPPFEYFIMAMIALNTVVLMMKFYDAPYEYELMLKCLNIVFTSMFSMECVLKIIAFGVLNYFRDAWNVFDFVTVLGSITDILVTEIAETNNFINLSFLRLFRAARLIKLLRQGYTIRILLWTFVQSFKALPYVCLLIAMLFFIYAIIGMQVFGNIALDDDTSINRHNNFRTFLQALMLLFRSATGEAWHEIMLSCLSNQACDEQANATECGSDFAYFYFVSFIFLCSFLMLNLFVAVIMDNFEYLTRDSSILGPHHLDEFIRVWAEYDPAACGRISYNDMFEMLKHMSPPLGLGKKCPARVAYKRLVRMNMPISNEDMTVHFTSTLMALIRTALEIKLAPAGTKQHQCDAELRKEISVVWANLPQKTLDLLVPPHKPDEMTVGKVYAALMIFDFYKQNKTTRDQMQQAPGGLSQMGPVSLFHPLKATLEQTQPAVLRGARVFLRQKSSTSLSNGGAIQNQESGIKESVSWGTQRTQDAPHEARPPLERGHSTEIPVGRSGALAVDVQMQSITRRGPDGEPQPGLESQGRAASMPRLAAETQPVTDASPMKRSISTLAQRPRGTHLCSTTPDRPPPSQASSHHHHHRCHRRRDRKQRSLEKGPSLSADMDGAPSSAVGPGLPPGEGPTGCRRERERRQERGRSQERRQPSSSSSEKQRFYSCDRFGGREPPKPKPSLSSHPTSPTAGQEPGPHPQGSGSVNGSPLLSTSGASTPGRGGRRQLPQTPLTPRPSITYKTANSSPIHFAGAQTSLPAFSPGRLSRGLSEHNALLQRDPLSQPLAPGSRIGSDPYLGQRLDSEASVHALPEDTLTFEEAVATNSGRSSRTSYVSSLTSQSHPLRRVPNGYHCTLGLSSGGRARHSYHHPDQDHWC
T1 sequence (P54284 whole entry partner): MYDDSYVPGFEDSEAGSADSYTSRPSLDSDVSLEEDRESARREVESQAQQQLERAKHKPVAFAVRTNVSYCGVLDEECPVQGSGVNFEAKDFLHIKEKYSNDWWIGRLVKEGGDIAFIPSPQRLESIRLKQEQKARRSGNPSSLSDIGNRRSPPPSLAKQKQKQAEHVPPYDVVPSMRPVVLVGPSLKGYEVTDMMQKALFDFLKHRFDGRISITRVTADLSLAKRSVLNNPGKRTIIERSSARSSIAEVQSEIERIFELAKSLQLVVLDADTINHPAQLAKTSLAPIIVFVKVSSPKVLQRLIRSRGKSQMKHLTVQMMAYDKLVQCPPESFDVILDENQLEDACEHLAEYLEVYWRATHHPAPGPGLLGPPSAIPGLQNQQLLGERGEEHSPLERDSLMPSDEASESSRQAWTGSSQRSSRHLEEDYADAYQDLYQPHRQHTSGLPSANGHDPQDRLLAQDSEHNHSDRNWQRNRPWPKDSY
T1 sequence (P54289 25-956 partner limits assumed): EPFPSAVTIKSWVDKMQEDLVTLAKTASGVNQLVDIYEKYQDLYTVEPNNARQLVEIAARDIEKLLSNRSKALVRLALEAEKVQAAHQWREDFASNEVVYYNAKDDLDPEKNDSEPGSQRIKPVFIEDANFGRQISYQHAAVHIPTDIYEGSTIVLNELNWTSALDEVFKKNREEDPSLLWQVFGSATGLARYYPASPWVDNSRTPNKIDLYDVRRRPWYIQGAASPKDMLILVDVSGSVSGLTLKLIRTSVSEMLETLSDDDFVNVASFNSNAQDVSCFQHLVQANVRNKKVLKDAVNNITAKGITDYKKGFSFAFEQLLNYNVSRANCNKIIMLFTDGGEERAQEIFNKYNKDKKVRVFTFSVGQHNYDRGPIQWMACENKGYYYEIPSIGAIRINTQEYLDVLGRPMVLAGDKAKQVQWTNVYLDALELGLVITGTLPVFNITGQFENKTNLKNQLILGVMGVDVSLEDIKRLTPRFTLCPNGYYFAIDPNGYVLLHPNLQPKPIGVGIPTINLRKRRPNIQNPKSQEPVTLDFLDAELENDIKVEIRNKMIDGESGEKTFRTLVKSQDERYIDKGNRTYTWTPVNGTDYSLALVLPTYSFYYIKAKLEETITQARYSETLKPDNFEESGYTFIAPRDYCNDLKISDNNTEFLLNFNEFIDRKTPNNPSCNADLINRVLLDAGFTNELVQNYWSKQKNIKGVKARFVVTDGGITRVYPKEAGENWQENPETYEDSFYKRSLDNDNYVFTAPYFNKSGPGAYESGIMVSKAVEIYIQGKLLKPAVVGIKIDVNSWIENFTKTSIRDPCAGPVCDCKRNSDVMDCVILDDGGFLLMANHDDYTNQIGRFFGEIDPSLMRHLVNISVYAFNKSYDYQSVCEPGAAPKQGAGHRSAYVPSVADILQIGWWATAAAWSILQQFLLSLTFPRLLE
T1 sequence (P54289 957-1103 partner limits assumed): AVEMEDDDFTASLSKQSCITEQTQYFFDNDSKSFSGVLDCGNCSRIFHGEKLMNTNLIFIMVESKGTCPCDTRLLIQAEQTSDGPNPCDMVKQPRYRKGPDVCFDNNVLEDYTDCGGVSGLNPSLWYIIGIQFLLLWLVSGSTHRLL

Regarding `COc1cnccc1-c1nc(C2CC(C)(C)OC(C)(C)C2)cn1-c1ccc(Cl)cc1` [Compound 66, 4-(1-(4-chlorophenyl)-4-(2,2,6,6-tetramethyltetrahydro-2H-pyran-4-yl)-1H-imidazol-2-yl)-3-methoxypyridine], the results for the pIC50 on human N-type Ca channel [1] (setting [3]) and at human N-type Ca channel [2] (setting [4]) were 7.31 and 5.89, respectively.
In the same order, the values of `COc1ccncc1-c1nc(C2CC(C)(C)OC(C)(C)C2)cn1-c1ccc(Cl)cc1` [Compound 68, 3-(1-(4-chlorophenyl)-4-(2,2,6,6-tetramethyltetrahydro-2H-pyran-4-yl)-1H-imidazol-2-yl)-4-methoxypyridine] are 6.96 and 5.34.
As to `COc1ccncc1-c1nc(C2CC(C)(C)OC(C)(C)C2)cn1-c1ccc(F)cc1` [Compound 69, 3-(1-(4-fluorophenyl)-4-(2,2,6,6-tetramethyltetrahydro-2H-pyran-4-yl)-1H-imidazol-2-yl)-4-methoxypyridine], the pIC50 (in general, the IC50 on a negative log10 scale, so that one unit is a factor of ten) on human N-type Ca channel [1] (setting [3]) is 5.84. Besides, the inhibition (usually the drop in the measured response relative to a control, in per cent) at 10 µM on human N-type Ca channel [2] (setting [5]) worked out at 53%; at human N-type Ca channel [2] (setting [6]), 29%.
Take `COc1cccnc1-c1nc(C2CC(C)(C)OC(C)(C)C2)cn1-c1ccc(F)cc1` [Compound 70, 2-(1-(4-fluorophenyl)-4-(2,2,6,6-tetramethyltetrahydro-2H-pyran-4-yl)-1H-imidazol-2-yl)-3-methoxypyridine]: the pIC50 at human N-type Ca channel [1] (setting [3]) was 6.06. In addition, the inhibition at 10 µM at human N-type Ca channel [2] (setting [5]) is 41%.
On to `COc1ncccc1-c1nc(C2CC(C)(C)OC(C)(C)C2)cn1-c1cc(F)ccc1F` [Compound 71, 3-(1-(2,5-difluorophenyl)-4-(2,2,6,6-tetramethyltetrahydro-2H-pyran-4-yl)-1H-imidazol-2-yl)-2-methoxypyridine], for which the pIC50 was 6.37 on human N-type Ca channel [1] (setting [3]) and 5.23 at human N-type Ca channel [2] (setting [7]). The “N Type IC50 Data Qpatch Pulse=15” value at human N-type Ca channel [2] (setting [8]) is “poor fit(0.01- 1 µM)”.
Regarding `COc1ncccc1-c1nc(C2CC(C)(C)OC(C)(C)C2)cn1-c1cc(F)cc(F)c1` [Compound 72, 3-(1-(3,5-difluorophenyl)-4-(2,2,6,6-tetramethyltetrahydro-2H-pyran-4-yl)-1H-imidazol-2-yl)-2-methoxypyridine], the pIC50 on human N-type Ca channel [1] (setting [3]) is 5.62. In addition, the “N Type IC50 Data Qpatch Pulse=1” value at human N-type Ca channel [2] (concentration range 0.01-1 µM) was “poor fit(0.01- 1 µM)”. In addition, at human N-type Ca channel [2] (setting [8]), the “N Type IC50 Data Qpatch Pulse=15” value is on record as “poor fit(0.01- 1 µM)”.
Regarding `COc1ncccc1-c1nc(C2CC(C)(C)OC(C)(C)C2)cn1-c1cc(F)cc(C#N)c1` [Compound 73, 3-fluoro-5-(2-(2-methoxypyridin-3-yl)-4-(2,2,6,6-tetramethyltetrahydro-2H-pyran-4-yl)-1H-imidazol-1-yl)benzonitrile], at human N-type Ca channel [1] (setting [3]), the pIC50 was 5.09. The “N Type IC50 Data Qpatch Pulse=1” value on human N-type Ca channel [2] (concentration range 0.01-1 µM) is on record as “poor fit(0.01- 1 µM)”. In addition, on human N-type Ca channel [2] (setting [8]), the “N Type IC50 Data Qpatch Pulse=15” value is given as “poor fit(0.01- 1 µM)”.
With `CCOc1ccc(-n2cc(C3CC(C)(C)OC(C)(C)C3)nc2-c2cccnc2OC)cn1` [Compound 75, 3-(1-(6-ethoxypyridin-3-yl)-4-(2,2,6,6-tetramethyltetrahydro-2H-pyran-4-yl)-1H-imidazol-2-yl)-2-methoxypyridine], the pIC50 at human N-type Ca channel [1] (setting [3]) was 5.69; against human N-type Ca channel [2] (setting [9]), 5.01; at human N-type Ca channel [2] (setting [4]), 5.38.
Turning to `COc1ncccc1-c1nc(C2CC(C)(C)OC(C)(C)C2)cn1-c1ccc(C#N)cc1F` [Compound 76, 3-fluoro-4-(2-(2-methoxypyridin-3-yl)-4-(2,2,6,6-tetramethyltetrahydro-2H-pyran-4-yl)-1H-imidazol-1-yl)benzonitrile], the pIC50 on human N-type Ca channel [1] (setting [3]) is 6.82; at human N-type Ca channel [2] (setting [7]) it was below 6.00; at human N-type Ca channel [2] (setting [10]), below 6.00.
For the molecule `COc1cc(-n2cc(C3CC(C)(C)OC(C)(C)C3)nc2-c2cccnc2OC)ccc1C#N` [Compound 77, 2-methoxy-4-(2-(2-methoxypyridin-3-yl)-4-(2,2,6,6-tetramethyltetrahydro-2H-pyran-4-yl)-1H-imidazol-1-yl)benzonitrile], the pIC50 on human N-type Ca channel [1] (setting [3]) was 5.00; against human N-type Ca channel [2] (setting [7]), below 6.00; at human N-type Ca channel [2] (setting [10]), below 6.00.
With `COc1ncccc1-c1nc(C2CC(C)(C)OC(C)(C)C2)cn1-c1ccc(C#N)c(Cl)c1` [Compound 78, 2-chloro-4-(2-(2-methoxypyridin-3-yl)-4-(2,2,6,6-tetramethyltetrahydro-2H-pyran-4-yl)-1H-imidazol-1-yl)benzonitrile], the pIC50 at human N-type Ca channel [1] (setting [3]) was 6.63; on human N-type Ca channel [2] (setting [10]), below 6.00.
Take `COc1ncccc1-c1nc(C2CC(C)(C)OC(C)(C)C2)cn1-c1ccc(F)c(C#N)c1` [Compound 79, 2-fluoro-5-(2-(2-methoxypyridin-3-yl)-4-(2,2,6,6-tetramethyltetrahydro-2H-pyran-4-yl)-1H-imidazol-1-yl)benzonitrile]: the pIC50 at human N-type Ca channel [1] (setting [3]) was 5.88; against human N-type Ca channel [2] (setting [4]) it was 5.44. The inhibition at 10 µM at human N-type Ca channel [2] (setting [5]) came to 29%.
Consider `COc1ncccc1-c1nc(C2CC(C)(C)OC(C)(C)C2)cn1-c1ccc(C#N)c(F)c1` [Compound 80, 2-fluoro-4-(2-(2-methoxypyridin-3-yl)-4-(2,2,6,6-tetramethyltetrahydro-2H-pyran-4-yl)-1H-imidazol-1-yl)benzonitrile], for which the pIC50 on human N-type Ca channel [1] (setting [3]) was 6.48. The inhibition at 10 µM on human N-type Ca channel [2] (setting [6]) stood at 28%.
On to `COc1ccccc1-c1nc(C2CC(C)(C)OC(C)(C)C2)cn1-c1ccc(C#N)c(F)c1` [Compound 81, 2-fluoro-4-(2-(2-methoxyphenyl)-4-(2,2,6,6-tetramethyltetrahydro-2H-pyran-4-yl)-1H-imidazol-1-yl) benzonitrile], for which the pIC50 on human N-type Ca channel [1] (setting [3]) was 6.70; on human N-type Ca channel [2] (setting [9]) it was 5.17; against human N-type Ca channel [2] (setting [4]), 5.55.
`COc1ncccc1-c1nc(C2CC(C)(C)OC(C)(C)C2)cn1-c1cc(F)c(C#N)c(F)c1` [Compound 82, 2,6-difluoro-4-(2-(2-methoxypyridin-3-yl)-4-(2,2,6,6-tetramethyltetrahydro-2H-pyran-4-yl)-1H-imidazol-1-yl) benzonitrile]: on human N-type Ca channel [1] (setting [3]), the pIC50 is 5.49. In addition, on human N-type Ca channel [2] (setting [11]), the “N Type IC50 Data Qpatch Pulse=1” value is listed as “poor fit(0.01-0.3 µM)”. Further, the “N Type IC50 Data Qpatch Pulse=15” value on human N-type Ca channel [2] (setting [12]) is on record as “poor fit(0.01-0.3 µM)”.
Regarding `COc1ccccc1-c1nc(C2CC(C)(C)OC(C)(C)C2)cn1-c1c(F)cc(C#N)cc1F` [Compound 83, 3,5-difluoro-4-(2-(2-methoxyphenyl)-4-(2,2,6,6-tetramethyltetrahydro-2H-pyran-4-yl)-1H-imidazol-1-yl)benzonitrile], at human N-type Ca channel [1], the pIC50 is 7.31. For the same molecule, the “N Type IC50 Data Qpatch Pulse=1” value at human N-type Ca channel [2] (setting [11]) is reported as “poor fit(0.01-0.3 µM)”. Moreover, the “N Type IC50 Data Qpatch Pulse=15” value at human N-type Ca channel [2] (setting [12]) is “poor fit(0.01-0.3 µM)”.
As for `COc1ncccc1-c1nc(C2CC(C)(C)OC(C)(C)C2)cn1-c1ccc(Cl)c(C#N)c1` [Compound 84, 2-chloro-5-(2-(2-methoxypyridin-3-yl)-4-(2,2,6,6-tetramethyltetrahydro-2H-pyran-4-yl)-1H-imidazol-1-yl)benzonitrile], the pIC50 at human N-type Ca channel [1] (setting [3]) is 6.44; at human N-type Ca channel [2] (setting [10]), below 6.00.
In the same order, the values of `COc1ccc(-n2cc(C3CC(C)(C)OC(C)(C)C3)nc2-c2cccnc2OC)cc1C#N` [Compound 85, 2-methoxy-5-(2-(2-methoxypyridin-3-yl)-4-(2,2,6,6-tetramethyltetrahydro-2H-pyran-4-yl)-1H-imidazol-1-yl)benzonitrile] are 5.19 and below 6.00.
In the same order, the values of `COc1ncncc1-c1nc(C2CC(C)(C)OC(C)(C)C2)cn1-c1ccc(C#N)cc1` [Compound 86, 4-(2-(4-methoxypyrimidin-5-yl)-4-(2,2,6,6-tetramethyltetrahydro-2H-pyran-4-yl)-1H-imidazol-1-yl)benzonitrile] are 5.89 and below 6.00.
On to `COc1nccnc1-c1nc(C2CC(C)(C)OC(C)(C)C2)cn1-c1ccc(C#N)cc1` [Compound 87, 4-(2-(3-methoxypyrazin-2-yl)-4-(2,2,6,6-tetramethyltetrahydro-2H-pyran-4-yl)-1H-imidazol-1-yl)benzonitrile], for which the pIC50 on human N-type Ca channel [1] (setting [3]) was 5.21. Further, the “N Type IC50 Data Qpatch Pulse=1” value at human N-type Ca channel [2] (setting [11]) is “poor fit(0.01-0.3 µM)”. At human N-type Ca channel [2] (setting [12]), the “N Type IC50 Data Qpatch Pulse=15” value is “poor fit(0.01-0.3 µM)”.
With `COc1nccnc1-c1nc(C2CC(C)(C)OC(C)(C)C2)cn1-c1ccc(C#N)c(F)c1` [Compound 88, 2-fluoro-4-(2-(3-methoxypyrazin-2-yl)-4-(2,2,6,6-tetramethyltetrahydro-2H-pyran-4-yl)-1H-imidazol-1-yl)benzonitrile], the pIC50 on human N-type Ca channel [1] (setting [3]) was 5.66; against human N-type Ca channel [2] (setting [13]) it was 6.46. On human N-type Ca channel [2] (setting [12]), the “N Type IC50 Data Qpatch Pulse=15” value is on record as “poor fit(0.01-0.3 µM)”.
In the same order, the values of `CCOc1ncccc1-c1nc(C2CC(C)(C)OC(C)(C)C2)cn1-c1ccc(C#N)c(F)c1` [Compound 89, 4-(2-(2-ethoxypyridin-3-yl)-4-(2,2,6,6-tetramethyltetrahydro-2H-pyran-4-yl)-1H-imidazol-1-yl)-2-fluorobenzonitrile] are 6.69, 6.29 and “poor fit(0.01-0.3 µM)”.
As for `COc1ccccc1-c1nc(C2CC(C)(C)OC(C)(C)C2)c(C)n1-c1ccc(Cl)cc1` [Compound 90, 1-(4-chlorophenyl)-2-(2-methoxyphenyl)-5-methyl-4-(2,2,6,6-tetramethyltetrahydro-2H-pyran-4-yl)-1H-imidazole], at human N-type Ca channel [1] (setting [3]), the pIC50 is 6.92. Also, the “N Type IC50 Data Qpatch Pulse=1” value at human N-type Ca channel [2] (setting [11]) is listed as “poor fit(0.01-0.3 µM)”. Besides, the “N Type IC50 Data Qpatch Pulse=15” value at human N-type Ca channel [2] (setting [12]) was “poor fit(0.01-0.3 µM)”.
